# Where two headings read alike, the source gives them in different places.
# How the values were obtained:
# [1] = Caco-2 bi-directional permeability assay; assay type: in vitro ADME, human; details: human
# Procedure: Intestinal permeability of cannabinoids and glycosylated cannabinoids was determined by measuring bi-directional transport across Caco-2 cell membranes. Caco-2 cells are used as an in vitro model of the human intestinal epithelium and permit assessment of the intestinal permeability of potential drugs. The test compound is added to either the apical or basolateral side of a confluent monolayer of Caco-2 cells and permeability is measured by monitoring the appearance of the test compound on the opposite side of the monolayer using LC-MS/QTOF. When performing a bi-directional assay, the efflux ratio (ER) is calculated from the ratio of B−A and A−B permeabilities. Caco-2 cells obtained from the ATCC are used between passage numbers 40-60. Cells are seeded onto Millipore Multiscreen Transwell plates at 1×10^5 cells/cm2. The cells are cultured in DMEM and media is changed every two or three days. On day 20 the permeability study is performed. Cell culture and assay incubations are carried out at 37° C. in an atmosphere of 5% CO2 with a relative humidity of 95%. On the day of the assay, the monolayers are prepared by rinsing both apical and basolateral surfaces twice with Hanks Balanced Salt Solution (HBSS) at the desired pH warmed to 37° C. Cells are then incubated with HBSS at the desired pH in both apical and basolateral compartments for 40 min to stabilize physiological parameters. 10 mM solutions of cannabinoids and cannabinoid glycosides are prepared in DMSO then diluted with assay buffer to give a final test compound concentration of 10 μM (final DMSO concentration of 1% v/v). The fluorescent integrity marker lucifer yellow is also included in the solution.
# Analytical standards are prepared from test compound DMSO dilutions and transferred to buffer, maintaining a 1% v/v DMSO concentration. For assessment of A−B permeability, HBSS is removed from the apical compartment and replaced with test compound solution. The apical compartment insert is then placed into a companion plate containing fresh buffer (containing 1% v/v DMSO). For assessment of B−A permeability, HBSS is removed from the companion plate and replaced with test compound solution. Fresh buffer (containing 1% v/v DMSO) is added to the apical compartment insert, which is then placed into the companion plate. At 120 min the apical compartment inserts and the companion plates are separated and apical and basolateral samples diluted for analysis. Test compound permeability is assessed in duplicate. Compounds of known permeability characteristics are run as controls on each assay plate. Test and control compounds are quantified by LC-MS/QTOF as described above. The starting concentration (C0) is determined from the solution and the experimental recovery calculated from C0 and both apical and basolateral compartment concentrations. The integrity of the monolayer throughout the experiment is checked by monitoring lucifer yellow permeation using fluorometric analysis. The permeability coefficient (Papp) for each compound is calculated from the following equation: Papp=(dQ/dt)/(C0×A) Where dQ/dt is the rate of permeation of the drug across the cells, C0 is the donor compartment concentration at time zero and A is the area of the cell monolayer. C0 is obtained from analysis of the dosing solution. The efflux ratio (ER) is calculated from mean Papp values from A−B and B−A data. This is derived from: ER=Papp(B−A)/Papp(A−B). The % recovery is calculated from the following equation; % recovery=(Total compound in donor and receiver compartment at end of experiment)/(initial compound present)×100.
# CBD glycosides were produced using glycosyl transferases and purified as described above. […] Low recovery of compound in a Caco-2 permeability assay can indicate problems with poor solubility, binding of the compound to the plate, metabolism by the Caco-2 cells or accumulation of the compound in the cell monolayer.
# [2] = In vitro enzymatic cascade converting sucrose and CBD to CBD glycosides; assay type: biochemical; details: enzymes added: GmSuSy, Cs73Y
# Text: In the previous examples, in vitro glycosyl transferase assays required the addition of an “activated” sugar (e.g. UDP-glucose), which is typically an extremely expensive reagent, furthermore, other activated sugars e.g. UDP-rhamnose are not available commercially and must be custom synthesized at high-cost and difficulty. […] To facilitate the low-cost production of cannabinoid glycosides not only with glucose, but with alternative sugars, an enzymatic cascade was set up to convert cannabinoids and the simple sugar sucrose into various cannabinoid glycosides. The cascade is divided into 3 steps, in step 1 sucrose and uridine diphosphate (UDP) is converted to UDP-glucose by GmSuSy (SEQ ID NO: 209, 210), additionally generating fructose as a bi-product. In step 2, UDP-glucose is interconverted to alternative UDP-sugars using a range of enzymes. For example, conversion of UDP-glucose to UDP-galactose by BsGa/E, multiple enzymes can also be used to produce UDP-sugars via other UDP-sugar intermediates. For example, conversion of UDP-glucose to UDP-glucuronic acid by AtUGDH1 combined with conversion of UDP-glucuronic acid to UDP-xylose by AtUXS3. In step 3, glycosyl transferases convert the activated sugar and a cannabinoid acceptor to the corresponding cannabinoid glycoside. For example, conversion of UDP-rhamnose and CBD to CBD-1′-O-β-D-rhamnoside (OB13) by Cs73Y (SEQ ID NO: 157, 158).
# Enzymes were purified and the in vitro assay performed as described in Example 13 and the reaction mixture set up as shown in table 57. Enzymes and co-factors were added as required for each individual reaction. Samples were extracted and analyzed as stated above.
Compound,"recovery at 120 min, 10 μM ([1]; Caco-2, apical to basolateral, 120 min, read-out: Mean recovery (%), Direction A→B)","recovery at 120 min, 10 μM ([1]; Caco-2, basolateral to apical, 120 min, read-out: Mean recovery (%), Direction B→A)","Papp A→B at 120 min, 10 μM ([1]; Caco-2, apical to basolateral, 120 min, mean and standard deviation of duplicates, read-out: Mean Papp, Direction A→B)","Papp B→A at 120 min, 10 μM ([1]; Caco-2, basolateral to apical, 120 min, mean and standard deviation of duplicates, read-out: Mean Papp, Direction B→A)","efflux ratio at 120 min, 10 μM ([1]; Caco-2, ratio of B−A and A−B permeabilities)",% Conversion of CBD and sucrose to CBD glycoside [2]
"C=C(C)[C@@H]1CCC(C)=C[C@H]1c1c(O)cc(CCCCC)cc1O [CBD, cannabidiol, reference compound]",16.4%,48.8%,0.61 ± 0.03 ×10⁻⁶ cm/s,1.45 ± 0.64 ×10⁻⁶ cm/s,2.37,
"C=C(C)[C@@H]1CCC(C)=C[C@H]1c1c(O[C@@H]2O[C@H](CO)[C@@H](O)[C@H](O)[C@H]2O)cc(CCCCC)cc1O[C@@H]1O[C@H](CO)[C@@H](O)[C@H](O)[C@H]1O [OB6, CBD-1′-O-β-D-glucosyl-3′-O-β-D-glucoside]",,,,,,91.3%
